# Results: US8217035B2, “Pyrimidine derivatives used as PI-3-kinase inhibitors” (Novartis AG, priority 2006, dated 2012)
# Test system: A2780 ovarian cancer cells
# Assay: Cellular proliferation in A2780 cells, Cell Titer Glo (Biological Method 4)
# Assay type: cell-based
# Conditions: Homo sapiens; ovarian cancer cell line A2780
# Outline: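 A2780 cells seeded at 1,000/well in DMEM with 10% FBS, at least 2 h before compound, then exposed 72 h at 37 °C, 5% CO2. Viable cells measured by Cell Titer Glo luminescence; EC50 calculated from duplicate conditions.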
row,Compound,EC50 [µM]
1,Cc1c(Nc2ncc(C#N)s2)nc(N2CCOCC2)nc1-c1cnc(N)nc1 [Compound 71],< 1
2,COc1ccc(Nc2cc(-c3cnc(N)nc3N)nc(N3CCOCC3)n2)cn1 [Compound 73],< 10
3,Nc1ncc(-c2cc(N3CCOC(c4ccccc4)C3)nc(N3CCOCC3)n2)cn1 (stereo not drawn) [Compound 15],< 1
4,CC(C)N1CCC(Oc2ccc(Nc3cc(-c4cnc(N)cc4C(F)(F)F)nc(N4CCOCC4)n3)cn2)CC1 [Compound 11],< 1
5,Nc1ncc(-c2cc(Nc3ccncc3C(F)(F)F)nc(N3CCOCC3)n2)cn1 [Compound 43],< 1
6,Nc1ccc(-c2cc(Nc3ccccc3S(N)(=O)=O)nc(N3CCOCC3)n2)cn1 [Compound 187],< 10
7,COc1ccc2ncc(Nc3nc(N4CCOCC4)nc(-c4cnc(N)nc4)c3C)cc2c1 [Compound 177],< 1
8,CCN(CC)CCc1csc(Nc2cc(-c3cnc(N)cc3C(F)(F)F)nc(N3CCOCC3)n2)n1 [Compound 13],< 1
9,Nc1ncc(-c2cc(NC(=O)c3cccnc3)nc(N3CCOCC3)n2)cn1 [Compound 189],< 10
10,N#Cc1cc(N)ncc1-c1cc(OC2CCOCC2)nc(N2CCOCC2)n1 [Compound 118],< 1
11,CC(C)(C)OC(=O)N1CCC(Oc2cc(-c3cnc(N)nc3N)nc(N3CCOCC3)n2)CC1 [Compound 28],< 1
12,CN1CCC(Oc2ccc(Nc3cc(-c4cnc(N)nc4C(F)(F)F)nc(N4CCOCC4)n3)cn2)CC1 [Compound 62],< 1
13,Cc1cc(Nc2cc(-c3ccc(N)nc3)nc(N3CCOCC3)n2)ccn1 [Compound 130],< 1
14,CS(=O)(=O)Nc1ncccc1-c1cc(-c2cnc(N)cc2C(F)(F)F)nc(N2CCOCC2)n1 [Compound 145],< 10
15,CS(=O)(=O)c1ccc(Nc2cc(-c3cnc(N)nc3C(F)(F)F)nc(N3CCOCC3)n2)cn1 [Compound 78],< 1
16,Nc1ccc(-c2cc(Nc3ccnc(Cl)c3)nc(N3CCOCC3)n2)cn1 [Compound 155],< 10
17,COc1ccnc(Nc2cc(-c3ccc(N)nc3)nc(N3CCOCC3)n2)c1 [Compound 148],< 25
18,Nc1ncc(-c2cc(Oc3cccnc3)nc(N3CCOCC3)n2)cn1 [Compound 8],< 1
19,CS(=O)(=O)N1CCC(Oc2cc(-c3cnc(N)nc3N)nc(N3CCOCC3)n2)CC1 [Compound 120],< 10
20,CS(=O)(=O)c1ccnc(Nc2cc(-c3cnc(N)cc3C(F)(F)F)nc(N3CCOCC3)n2)c1 [Compound 109],< 10
21,Nc1ncc(-c2cc(Nc3ccc(Oc4cccnc4)nc3)nc(N3CCOCC3)n2)cn1 [Compound 64],< 1
22,CC(C)N1CCC(Oc2ccc(Nc3cc(-c4cnc(N)nc4N)nc(N4CCOCC4)n3)cn2)CC1 [Compound 68],< 1
23,CS(=O)(=O)Nc1nc2ccccc2cc1-c1cc(-c2ccc(N)nc2)nc(N2CCOCC2)n1 [Compound 157],< 25
24,CN1CCC(Oc2ccc(Nc3cc(-c4cnc(N)nc4)nc(N4CCOCC4)n3)cn2)C1 (stereo not drawn) [Compound 35],< 1
25,CC(C)C(=O)N1CCC(Oc2cc(-c3cnc(N)nc3C(F)(F)F)nc(N3CCOCC3)n2)CC1 [Compound 106],< 1
26,CC(C)N1CCC(Oc2ccc(Nc3cc(-c4cnc(N)nc4C(F)(F)F)nc(N4CCOCC4)n3)cn2)CC1 [Compound 41],< 1

# Test system: pSer473 Akt in A2780 cells
# Assay: pSer473 Akt assay to monitor PI3K pathway in A2780 cells (Biological Method 2, MSD)
# Assay type: cell-based
# Conditions: Homo sapiens; inhibition of Akt phosphorylation, A2780 cells
# Outline: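 A2780 ovarian cancer cells in DMEM/10% FBS were treated with compound for 1 h at 37 °C, then lysed. pSer473-Akt and total Akt were measured by MSD electrochemiluminescence immunoassay. The pSer473/total Akt ratio gave % inhibition versus DMSO, from which EC50 was derived.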
row,Compound,EC50 [µM]
1,Cc1c(Nc2ncc(C#N)s2)nc(N2CCOCC2)nc1-c1cnc(N)nc1 [Compound 71],< 1
2,COc1ccc(Nc2cc(-c3cnc(N)nc3N)nc(N3CCOCC3)n2)cn1 [Compound 73],< 1
3,Nc1ncc(-c2cc(N3CCOC(c4ccccc4)C3)nc(N3CCOCC3)n2)cn1 (stereo not drawn) [Compound 15],< 1
4,CC(C)N1CCC(Oc2ccc(Nc3cc(-c4cnc(N)cc4C(F)(F)F)nc(N4CCOCC4)n3)cn2)CC1 [Compound 11],< 1
5,Nc1ncc(-c2cc(Nc3ccncc3C(F)(F)F)nc(N3CCOCC3)n2)cn1 [Compound 43],< 1
6,Nc1ccc(-c2cc(Nc3ccccc3S(N)(=O)=O)nc(N3CCOCC3)n2)cn1 [Compound 187],< 1
7,COc1ccc2ncc(Nc3nc(N4CCOCC4)nc(-c4cnc(N)nc4)c3C)cc2c1 [Compound 177],< 1
8,CCN(CC)CCc1csc(Nc2cc(-c3cnc(N)cc3C(F)(F)F)nc(N3CCOCC3)n2)n1 [Compound 13],< 1
9,Nc1ncc(-c2cc(NC(=O)c3cccnc3)nc(N3CCOCC3)n2)cn1 [Compound 189],< 1
10,N#Cc1cc(N)ncc1-c1cc(OC2CCOCC2)nc(N2CCOCC2)n1 [Compound 118],< 1
11,CC(C)(C)OC(=O)N1CCC(Oc2cc(-c3cnc(N)nc3N)nc(N3CCOCC3)n2)CC1 [Compound 28],< 1
12,CN1CCC(Oc2ccc(Nc3cc(-c4cnc(N)nc4C(F)(F)F)nc(N4CCOCC4)n3)cn2)CC1 [Compound 62],< 1
13,Cc1cc(Nc2cc(-c3ccc(N)nc3)nc(N3CCOCC3)n2)ccn1 [Compound 130],< 1
14,CS(=O)(=O)Nc1ncccc1-c1cc(-c2cnc(N)cc2C(F)(F)F)nc(N2CCOCC2)n1 [Compound 145],< 1
15,CS(=O)(=O)c1ccc(Nc2cc(-c3cnc(N)nc3C(F)(F)F)nc(N3CCOCC3)n2)cn1 [Compound 78],< 1
16,Nc1ccc(-c2cc(Nc3ccnc(Cl)c3)nc(N3CCOCC3)n2)cn1 [Compound 155],< 1
17,COc1ccnc(Nc2cc(-c3ccc(N)nc3)nc(N3CCOCC3)n2)c1 [Compound 148],< 1
18,Nc1ncc(-c2cc(Oc3cccnc3)nc(N3CCOCC3)n2)cn1 [Compound 8],< 1
19,CS(=O)(=O)N1CCC(Oc2cc(-c3cnc(N)nc3N)nc(N3CCOCC3)n2)CC1 [Compound 120],< 1
20,CS(=O)(=O)c1ccnc(Nc2cc(-c3cnc(N)cc3C(F)(F)F)nc(N3CCOCC3)n2)c1 [Compound 109],< 1
21,Nc1ncc(-c2cc(Nc3ccc(Oc4cccnc4)nc3)nc(N3CCOCC3)n2)cn1 [Compound 64],< 1
22,CC(C)N1CCC(Oc2ccc(Nc3cc(-c4cnc(N)nc4N)nc(N4CCOCC4)n3)cn2)CC1 [Compound 68],< 1
23,CS(=O)(=O)Nc1nc2ccccc2cc1-c1cc(-c2ccc(N)nc2)nc(N2CCOCC2)n1 [Compound 157],< 1
24,CN1CCC(Oc2ccc(Nc3cc(-c4cnc(N)nc4)nc(N4CCOCC4)n3)cn2)C1 (stereo not drawn) [Compound 35],< 1
25,CC(C)C(=O)N1CCC(Oc2cc(-c3cnc(N)nc3C(F)(F)F)nc(N3CCOCC3)n2)CC1 [Compound 106],< 1
26,CC(C)N1CCC(Oc2ccc(Nc3cc(-c4cnc(N)nc4C(F)(F)F)nc(N4CCOCC4)n3)cn2)CC1 [Compound 41],< 1

# Target: PI3 kinase alpha (Homo sapiens, UniProt P42336)
# Sequence (P42336 whole entry): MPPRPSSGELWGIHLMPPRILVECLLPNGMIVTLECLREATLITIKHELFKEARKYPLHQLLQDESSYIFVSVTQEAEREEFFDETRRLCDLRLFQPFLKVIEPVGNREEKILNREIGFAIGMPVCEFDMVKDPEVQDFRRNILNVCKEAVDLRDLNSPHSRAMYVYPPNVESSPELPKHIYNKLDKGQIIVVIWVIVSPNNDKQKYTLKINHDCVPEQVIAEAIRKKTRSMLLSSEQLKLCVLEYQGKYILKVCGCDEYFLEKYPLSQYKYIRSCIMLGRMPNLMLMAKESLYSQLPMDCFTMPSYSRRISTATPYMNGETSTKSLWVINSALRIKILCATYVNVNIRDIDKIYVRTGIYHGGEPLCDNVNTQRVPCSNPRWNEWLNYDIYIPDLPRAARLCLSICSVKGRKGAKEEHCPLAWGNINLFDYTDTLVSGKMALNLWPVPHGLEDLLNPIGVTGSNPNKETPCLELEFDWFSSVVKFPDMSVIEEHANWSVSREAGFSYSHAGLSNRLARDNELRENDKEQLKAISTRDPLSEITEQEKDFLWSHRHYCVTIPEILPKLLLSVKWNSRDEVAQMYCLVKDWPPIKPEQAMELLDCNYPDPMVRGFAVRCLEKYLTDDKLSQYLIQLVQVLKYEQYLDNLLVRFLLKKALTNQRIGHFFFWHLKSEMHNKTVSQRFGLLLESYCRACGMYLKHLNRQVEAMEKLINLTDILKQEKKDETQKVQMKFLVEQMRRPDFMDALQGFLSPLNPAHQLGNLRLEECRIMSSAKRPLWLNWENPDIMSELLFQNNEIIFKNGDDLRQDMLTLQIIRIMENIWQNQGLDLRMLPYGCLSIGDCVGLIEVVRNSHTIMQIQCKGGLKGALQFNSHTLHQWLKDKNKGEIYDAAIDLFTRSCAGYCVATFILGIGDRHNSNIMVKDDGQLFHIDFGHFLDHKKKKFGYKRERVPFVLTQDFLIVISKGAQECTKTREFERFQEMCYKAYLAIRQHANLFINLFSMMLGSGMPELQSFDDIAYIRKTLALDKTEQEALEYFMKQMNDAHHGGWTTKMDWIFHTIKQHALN
# Sequence (P27986 whole entry partner): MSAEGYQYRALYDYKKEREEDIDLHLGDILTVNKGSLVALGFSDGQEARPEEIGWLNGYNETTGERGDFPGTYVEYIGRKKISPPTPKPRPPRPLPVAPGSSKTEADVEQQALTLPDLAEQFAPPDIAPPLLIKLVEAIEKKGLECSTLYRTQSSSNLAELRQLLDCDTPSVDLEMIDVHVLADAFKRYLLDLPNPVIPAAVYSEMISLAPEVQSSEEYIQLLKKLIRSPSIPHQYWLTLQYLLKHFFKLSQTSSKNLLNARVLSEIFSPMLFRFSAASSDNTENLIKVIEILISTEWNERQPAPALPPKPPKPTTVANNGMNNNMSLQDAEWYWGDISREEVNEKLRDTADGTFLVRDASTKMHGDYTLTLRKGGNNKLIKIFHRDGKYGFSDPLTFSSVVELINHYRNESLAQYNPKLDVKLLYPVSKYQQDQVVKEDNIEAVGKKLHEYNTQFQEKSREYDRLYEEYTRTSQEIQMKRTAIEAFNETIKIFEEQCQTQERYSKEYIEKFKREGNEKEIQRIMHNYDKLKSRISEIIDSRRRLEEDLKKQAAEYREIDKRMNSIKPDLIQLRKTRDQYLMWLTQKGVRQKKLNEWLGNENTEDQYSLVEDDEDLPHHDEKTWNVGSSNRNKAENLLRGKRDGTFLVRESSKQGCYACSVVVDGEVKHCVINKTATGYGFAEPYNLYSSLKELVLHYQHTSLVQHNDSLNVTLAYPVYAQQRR
# Assay: PI3K ATP depletion assay (Biological Method 1, Assay 3; KinaseGlo luminescence)
# Assay type: biochemical
# Conditions: ATP depletion assay; read-out: PI3 Kinase Alpha, IC50
# Outline: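 Compound in DMSO was mixed with 10 nM PI3 kinase and 5 μg/mL phosphatidylinositol, and the reaction was started with 2 μM ATP. It ran to about 50% ATP depletion and was stopped with KinaseGlo.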
row,Compound,IC50 [µM]
1,Cc1c(Nc2ncc(C#N)s2)nc(N2CCOCC2)nc1-c1cnc(N)nc1 [Compound 71],< 1
2,COc1ccc(Nc2cc(-c3cnc(N)nc3N)nc(N3CCOCC3)n2)cn1 [Compound 73],< 1
3,Nc1ncc(-c2cc(N3CCOC(c4ccccc4)C3)nc(N3CCOCC3)n2)cn1 (stereo not drawn) [Compound 15],< 1
4,CC(C)N1CCC(Oc2ccc(Nc3cc(-c4cnc(N)cc4C(F)(F)F)nc(N4CCOCC4)n3)cn2)CC1 [Compound 11],< 1
5,Nc1ncc(-c2cc(Nc3ccncc3C(F)(F)F)nc(N3CCOCC3)n2)cn1 [Compound 43],< 1
6,Nc1ccc(-c2cc(Nc3ccccc3S(N)(=O)=O)nc(N3CCOCC3)n2)cn1 [Compound 187],< 1
7,COc1ccc2ncc(Nc3nc(N4CCOCC4)nc(-c4cnc(N)nc4)c3C)cc2c1 [Compound 177],< 1
8,CCN(CC)CCc1csc(Nc2cc(-c3cnc(N)cc3C(F)(F)F)nc(N3CCOCC3)n2)n1 [Compound 13],< 1
9,Nc1ncc(-c2cc(NC(=O)c3cccnc3)nc(N3CCOCC3)n2)cn1 [Compound 189],< 1
10,N#Cc1cc(N)ncc1-c1cc(OC2CCOCC2)nc(N2CCOCC2)n1 [Compound 118],< 1
11,CC(C)(C)OC(=O)N1CCC(Oc2cc(-c3cnc(N)nc3N)nc(N3CCOCC3)n2)CC1 [Compound 28],< 1
12,CN1CCC(Oc2ccc(Nc3cc(-c4cnc(N)nc4C(F)(F)F)nc(N4CCOCC4)n3)cn2)CC1 [Compound 62],< 1
13,Cc1cc(Nc2cc(-c3ccc(N)nc3)nc(N3CCOCC3)n2)ccn1 [Compound 130],< 1
14,CS(=O)(=O)Nc1ncccc1-c1cc(-c2cnc(N)cc2C(F)(F)F)nc(N2CCOCC2)n1 [Compound 145],< 1
15,CS(=O)(=O)c1ccc(Nc2cc(-c3cnc(N)nc3C(F)(F)F)nc(N3CCOCC3)n2)cn1 [Compound 78],< 1
16,Nc1ccc(-c2cc(Nc3ccnc(Cl)c3)nc(N3CCOCC3)n2)cn1 [Compound 155],< 1
17,COc1ccnc(Nc2cc(-c3ccc(N)nc3)nc(N3CCOCC3)n2)c1 [Compound 148],< 1
18,Nc1ncc(-c2cc(Oc3cccnc3)nc(N3CCOCC3)n2)cn1 [Compound 8],< 1
19,CS(=O)(=O)N1CCC(Oc2cc(-c3cnc(N)nc3N)nc(N3CCOCC3)n2)CC1 [Compound 120],< 1
20,CS(=O)(=O)c1ccnc(Nc2cc(-c3cnc(N)cc3C(F)(F)F)nc(N3CCOCC3)n2)c1 [Compound 109],< 1
21,Nc1ncc(-c2cc(Nc3ccc(Oc4cccnc4)nc3)nc(N3CCOCC3)n2)cn1 [Compound 64],< 1
22,CC(C)N1CCC(Oc2ccc(Nc3cc(-c4cnc(N)nc4N)nc(N4CCOCC4)n3)cn2)CC1 [Compound 68],< 1
23,CS(=O)(=O)Nc1nc2ccccc2cc1-c1cc(-c2ccc(N)nc2)nc(N2CCOCC2)n1 [Compound 157],< 1
24,CN1CCC(Oc2ccc(Nc3cc(-c4cnc(N)nc4)nc(N4CCOCC4)n3)cn2)C1 (stereo not drawn) [Compound 35],< 1
25,CC(C)C(=O)N1CCC(Oc2cc(-c3cnc(N)nc3C(F)(F)F)nc(N3CCOCC3)n2)CC1 [Compound 106],< 1
26,CC(C)N1CCC(Oc2ccc(Nc3cc(-c4cnc(N)nc4C(F)(F)F)nc(N4CCOCC4)n3)cn2)CC1 [Compound 41],< 1
